Data taken from patent publication US10617680B2 (CELGENE QUANTICEL RESEARCH, INC., priority 2017, dated 2020).

biological target: CBP (Homo sapiens (Human), UniProt Q92793); experiment: In vitro CBP inhibition (AlphaScreen, biotinylated H4-tetraacetyl peptide); type: binding; details: AlphaScreen, Table 29; read-out: CBP IC50
How it was run: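 His-tagged CBP expressed in E. coli (50 nM final) incubated with biotinylated H4K5/8/12/16(Ac) peptide (20 nM final) in 50 mM HEPES pH 7.3, 10 mM NaCl, 0.25 mM TCEP, 0.1% BSA, 0.005% Brij-35, 0.4% DMSO, 20 min at room temp.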

Sequence of CBP (Q92793 1081-1197): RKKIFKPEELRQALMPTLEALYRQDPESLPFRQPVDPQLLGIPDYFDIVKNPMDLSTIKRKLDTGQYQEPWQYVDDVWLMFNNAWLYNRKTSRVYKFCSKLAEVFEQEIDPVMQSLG

Row | Structure (SMILES) | IC50 [nM]
1 | COc1ccc(C#N)c(-n2cc(-c3cn(C)c(=O)cc3-c3ccc(OC)nc3)cn2)c1 [Example 264, 4-Methoxy-2-[4-(6-methoxy-1′-methyl-6′-oxo-1′,6′-dihydro-[3,4′]bipyridinyl-3′-yl)-pyrazol-1-yl]-benzonitrile] | < 500
2 | CCOc1ccc(-c2cc(=O)n(C)cc2-c2cnn(-c3cc(OC)ccc3C#N)c2)cn1 [Example 265, 2-[4-(6-Ethoxy-1′-methyl-6′-oxo-1′,6′-dihydro-[3,4′]bipyridinyl-3′-yl)-pyrazol-1-yl]-4-methoxy-benzonitrile] | < 500
3 | COc1ccc(C#N)c(-n2cc(-c3cn(C)c(=O)cc3-c3ccnc(OC)c3)cn2)c1 [Example 266, 4-Methoxy-2-[4-(2′-methoxy-1-methyl-6-oxo-1,6-dihydro-[4,4′]bipyridinyl-3-yl)-pyrazol-1-yl]-benzonitrile] | < 500
4 | COc1ccc(C(=O)O)c(-n2cc(-c3cn(C)c(=O)cc3-c3ccccc3)cn2)c1 [Example 267, 4-Methoxy-2-[4-(1-methyl-6-oxo-4-phenyl-1,6-dihydro-pyridin-3-yl)-pyrazol-1-yl]-benzoic acid] | < 500
5 | COc1ccc(C(=O)O)c(-n2cc(-c3cn(C)c(=O)cc3-c3ccc(F)cc3)cn2)c1 [Example 269, 2-{4-[4-(4-Fluoro-phenyl)-1-methyl-6-oxo-1,6-dihydro-pyridin-3-yl]-pyrazol-1-yl}-4-methoxy-benzoic acid] | < 500
6 | COc1ccc(C(=O)O)c(-n2cc(-c3cn(C)c(=O)cc3-c3ccc(OC)nc3)cn2)c1 [Example 270, 4-Methoxy-2-[4-(6-methoxy-1′-methyl-6′-oxo-1′,6′-dihydro-[3,4′]bipyridinyl-3∝-yl)-pyrazol-1-yl]-benzoic acid] | < 500
7 | CCOc1ccc(-c2cc(=O)n(C)cc2-c2cnn(-c3cc(OC)ccc3C(=O)O)c2)cn1 [Example 271, 2-[4-(6-Ethoxy-1′-methyl-6′-oxo-1′,6′-dihydro-[3,4′]bipyridinyl-3′-yl)-pyrazol-1-yl]-4-methoxy-benzoic acid] | < 500
8 | COc1ccc(C(=O)O)c(-n2cc(-c3cn(C)c(=O)cc3-c3ccnc(OC)c3)cn2)c1 [Example 272, 4-Methoxy-2-[4-(2′-methoxy-1-methyl-6-oxo-1,6-dihydro-[4,4′]bipyridinyl-3-yl)-pyrazol-1-yl]-benzoic acid] | < 500
9 | COc1ccc(-c2cc(=O)n(C)cc2-c2cnn(-c3cccc(F)c3C#N)c2)cn1 [Example 274, 2-Fluoro-6-[4-(6-methoxy-1′-methyl-6′-oxo-1′,6′-dihydro-[3,4′]bipyridinyl-3′-yl)-pyrazol-1-yl]-benzonitrile] | < 500
10 | Cn1cc(-c2cnn(-c3cccc(F)c3C#N)c2)c(-c2ccc(Cl)cc2)cc1=O [Example 275, 2-{4-[4-(4-Chloro-phenyl)-1-methyl-6-oxo-1,6-dihydro-pyridin-3-yl]-pyrazol-1-yl}-6-fluoro-benzonitrile] | < 500
11 | Cn1ccc(-c2cc(=O)n(C)cc2-c2cnn(-c3cccc(Cl)c3C#N)c2)cc1=O [Example 276, 2-Chloro-6-[4-(1,1′-dimethyl-6,2′-dioxo-1,6,1,′,2′-tetrahydro-[4,4′]bipyridinyl-3-yl)-pyrazol-1-yl]-benzonitrile] | < 500
12 | COc1ccc(-c2cc(=O)n(C)cc2-c2cnn(-c3cccc(Cl)c3C#N)c2)cn1 [Example 277, 2-Chloro-6-[4-(6-methoxy-1′-methyl-6′-oxo-1′,6′-dihydro-[3,4′]bipyridinyl-3′-yl)-pyrazol-1-yl]-benzonitrile] | < 500
13 | COc1cc(-c2cc(=O)n(C)cc2-c2cnn(-c3cccc(F)c3C#N)c2)ccc1C [Example 278, 2-fluoro-6-(4-(4-(3-methoxy-4-methylphenyl)-1-methyl-6-oxo-1,6-dihydro-pyridin-3-yl)-1H-pyrazol-1-yl)benzonitrile] | < 500
14 | COc1cc(-c2cc(=O)n(C)cc2-c2cnn(-c3cccc(Cl)c3C#N)c2)ccc1C [Example 279, 2-chloro-6-(4-(4-(3-methoxy-4-methylphenyl)-1-methyl-6-oxo-1,6-dihydropyridin-3-yl)-1H-pyrazol-1-yl)benzonitrile] | < 500
15 | CCc1ncc(-c2cc(=O)n(C)cc2-c2cnn(-c3cccc(Cl)c3C#N)c2)cn1 [Example 280, 2-chloro-6-(4-(4-(2-ethylpyrimidin-5-yl)-1-methyl-6-oxo-1,6-dihydropyridin-3-yl)-1H-pyrazol-1-yl)benzonitrile] | < 500
16 | CCOc1cc(=O)n(C)cc1-c1cnn(-c2ccccc2C#N)c1 [Example 281, 2-(4-(4-ethoxy-1-methyl-6-oxo-1,6-dihydropyridin-3-yl)-1H-pyrazol-1-yl)benzonitrile] | < 500
17 | CCOc1cc(=O)n(C)cc1-c1cnn(-c2ccccc2C(N)=O)c1 [Example 282, 2-(4-(4-ethoxy-1-methyl-6-oxo-1,6-dihydropyridin-3-yl)-1H-pyrazol-1-yl)benzamide] | < 500
18 | Cn1cc(-c2cnn(-c3ccccc3C#N)c2)c(OCCN2CCOCC2)cc1=O [Example 283, 2-(4-(1-methyl-4-(2-morpholinoethoxy)-6-oxo-1,6-dihydropyridin-3-yl)-1H-pyrazol-1-yl)benzonitrile] | < 500

Row | Structure (SMILES) | IC50 [nM]
19 | Cn1ccc(-c2cc(=O)n(C)cc2-c2cnn(-c3ccccc3S(C)(=O)=O)c2)cc1=O [Example 284, 5-[1-(2-Methanesulfonyl-phenyl)-1H-pyrazol-4-yl]-1,1′-dimethyl-1H,1′H-[4,4′]bipyridinyl-2,2′-dione] | < 500
20 | COc1ccc(-c2cc(=O)n(C)cc2-c2cnn(-c3ccccc3S(C)(=O)=O)c2)cn1 [Example 285, 5′-[1-(2-Methanesulfonyl-phenyl)-1H-pyrazol-4-yl]-6-methoxy-1′-methyl-1′H-[3,4′]bipyridinyl-2′-one] | < 500
21 | Cn1cc(-c2cc(=O)n(C)cc2-c2cnn(-c3ccccc3S(C)(=O)=O)c2)ccc1=O [Example 287] | 500 to 5000
22 | Cn1cc(-c2cnn(-c3ccccc3C(=O)NC#N)c2)c(-c2ccc(F)cc2)cc1=O [Example 288, N-cyano-2-(4-(4-(4-fluorophenyl)-1-methyl-6-oxo-1,6-dihydropyridin-3-yl)-1H-pyrazol-1-yl)benzamide] | < 500
23 | Cn1cc(-c2cc(=O)n(C)cc2-c2cnn(-c3ccccc3C(=O)NC#N)c2)cn1 [Example 289, N-cyano-2-(4-(1-methyl-4-(1-methyl-1H-pyrazol-4-yl)-6-oxo-1,6-dihydropyridin-3-yl)-1H-pyrazol-1-yl)benzamide] | < 500
24 | COc1ccc(-c2cc(=O)n(C)cc2-c2cnn(-c3ccccc3C(=O)NC#N)c2)cc1 [Example 290, N-cyano-2-(4-(4-(4-methoxyphenyl)-1-methyl-6-oxo-1,6-dihydropyridin-3-yl)-1H-pyrazol-1-yl)benzamide] | < 500
25 | Cn1cc(-c2cnn(-c3ccccc3C(=O)NC#N)c2)c(-c2ccc(Cl)cc2)cc1=O [Example 291, 2-(4-(4-(4-chlorophenyl)-1-methyl-6-oxo-1,6-dihydropyridin-3-yl)-1H-pyrazol-1-yl)-N-cyanobenzamide] | < 500
26 | Cn1ccc(-c2cc(=O)n(C)cc2-c2cnn(-c3ccccc3C(=O)NC#N)c2)cc1=O [Example 293, N-cyano-2-(4-(1,1′-dimethyl-2′,6-dioxo-1,1′,2′,6-tetrahydro-[4,4′-bipyridin]-3-yl)-1H-pyrazol-1-yl)benzamide] | < 500
27 | CNc1ncc(-c2cc(=O)n(C)cc2-c2cnn(-c3ccccc3C(=O)NC#N)c2)cn1 [Example 295, N-cyano-2-(4-(1-methyl-4-(2-(methylamino)pyrimidin-5-yl)-6-oxo-1,6-dihydropyridin-3-yl)-1H-pyrazol-1-yl)benzamide] | < 500
28 | CCOc1ccc(-c2cc(=O)n(C)cc2-c2cnn(-c3ccccc3C(=O)NC#N)c2)cn1 [Example 296, N-cyano-2-(4-(6-ethoxy-1′-methyl-6′-oxo-1′,6′-dihydro-[3,4′-bipyridin]-3′-yl)-1H-pyrazol-1-yl)benzamide] | < 500
29 | Cn1cc(-c2cnn(-c3ccccc3-c3nnn[nH]3)c2)c(-c2ccc(Cl)cc2)cc1=O [Example 297, 5-(1-(2-(1H-tetrazol-5-yl)phenyl)-1H-pyrazol-4-yl)-4-(4-chlorophenyl)-1-methylpyridin-2(1H)-one] | < 500
30 | COc1ccc(-c2cc(=O)n(C)cc2-c2cnn(-c3ccccc3-c3nnn[nH]3)c2)cc1 [Example 298, 4-(4-Methoxy-phenyl)-1-methyl-5-{1-[2-(1H-tetrazol-5-yl)-phenyl]-1H-pyrazol-4-yl}-1H-pyridin-2-one] | < 500
31 | Cn1cc(-c2cc(=O)n(C)cc2-c2cnn(-c3ccccc3-c3nnn[nH]3)c2)cn1 [Example 300, 1-Methyl-4-(1-methyl-1H-pyrazol-4-yl)-5-{1-[2-(1H-tetrazol-5-yl)-phenyl]-1H-pyrazol-4-yl}-1H-pyridin-2-one] | < 500
32 | Cn1cc(-c2cnn(-c3ccccc3-c3nnn[nH]3)c2)c(C2CC2)cc1=O [Example 301, 4-Cyclopropyl-1-methyl-5-{1-[2-(1H-tetrazol-5-yl)-phenyl]-1H-pyrazol-4-yl}-1H-pyridin-2-one] | < 500
33 | Cn1cc(-c2cnn(-c3ccccc3C(=O)NS(C)(=O)=O)c2)c(C2CC2)cc1=O [Example 302, N-{2-[4-(4-Cyclopropyl-1-methyl-6-oxo-1,6-dihydro-pyridin-3-yl)-pyrazol-1-yl]-benzoyl}-methanesulfonamide] | < 500
34 | CCS(=O)(=O)NC(=O)c1ccccc1-n1cc(-c2cn(C)c(=O)cc2C2CC2)cn1 [Example 303, Ethanesulfonic acid 2-[4-(4-cyclopropyl-1-methyl-6-oxo-1,6-dihydro-pyridin-3-yl)-pyrazol-1-yl]-benzoylamide] | < 500
35 | CN(C)S(=O)(=O)NC(=O)c1ccccc1-n1cc(-c2cn(C)c(=O)cc2C2CC2)cn1 [Example 304, N-[(dimethylamino)sulfonyl]-{2-[4-(4-cyclopropyl-1-methyl-6-oxo(3-hydropyridyl))pyrazolyl]phenyl}carboxamide] | < 500
